# Results: patent US20100317515A1, “Azolylmethyloxiranes, use Thereof and Agents Containing the Same” (priority 2007, published 2010)
# Like-named read-outs stand apart in the source and are kept apart here.
# Key:
# [1] = test system: Pyricularia oryzae; type: cell-based
# [2] = test system: Puccinia recondita; assay: Protective activity against Puccinia recondita on wheat (brown rust of wheat) (Puccrt P1); type: in vivo
# [3] = test system: Botrytis cinerea; assay: Activity against gray mold on bell pepper leaves caused by Botrytis cinerea, 1 day protective application (Botrci P1); type: in vivo; conditions: untreated 90%
# Description: (§1) The active compounds were prepared separately or jointly as a stock solution comprising 25 mg of active compound which was made up to 10 ml using a mixture of acetone and/or DMSO and the emulsifier Uniperol® EL (wetting agent having emulsifying and dispersing action based on ethoxylated alkylphenols) in a volume ratio of solvent/emulsifier of 99:1. The mixture was then made up to 100 ml with water. This stock solution was diluted with the solvent/emulsifier/water mixture described to give the concentration of active compounds stated below. Alternatively, the active compounds were used as a commercial finished formulation and diluted with water to the concentration of active compounds stated.
# Activity Against Gray Mold on Bell Pepper Leaves Caused by Botrytis cinerea, 1 Day Protective Application (Botrci P1)
# Bell pepper seedlings were, after 2-3 leaves were well developed, sprayed to runoff point with an aqueous suspension having the active compound concentration stated below. The next day, the treated plants were inoculated with a spore suspension of Botrytis cinerea in a 2% strength biomalt solution. The test plants were then placed in a dark climatized chamber at 22 to 24° C. and high atmospheric humidity. After 5 days, the extent of the fungal infection on the leaves could be determined visually in %.
# [4] = test system: Leptosphaeria nodorum; assay: Activity against the leaf and glume blotch pathogen Leptosphaeria nodorum in the microtiter test (Leptno); type: cell-based
# [5] = test system: Phakopsora pachyrhizi; assay: Curative activity against soybean rust caused by Phakopsora pachyrhizi (Phakpa K1); type: in vivo, Phakopsora pachyrhizi on soybean; conditions: curative application, untreated 90%
# Description: as §1
# Curative Activity Against Soybean Rust Caused by Phakopsora pachyrhizi (Phakpa K1)
# Leaves of potted soybean seedlings were inoculated with a spore suspension of soybean rust (Phakopsora pachyrhizi). The pots were then placed in a chamber with high atmospheric humidity (90 to 95%) and at 23 to 27° C. for 24 hours. During this time, the spores germinated and the germ tubes penetrated into the leaf tissue. The infected plants were then sprayed to runoff point with the active compound solution described above at the active compound concentration stated below. After the spray coating had dried on, the test plants were cultivated in a greenhouse at temperatures between 23 and 27° C. and 60 to 80% relative atmospheric humidity for 14 days. The extent of the rust fungus development on the leaves was then determined visually in % infection.
# [6] = test system: Septoria tritici; assay: Activity against the Septoria leaf spot pathogen Septoria tritici in the microtiter test (Septtr); type: cell-based
# [7] = test system: Alternaria solani; assay: Activity against the early blight pathogen Alternaria solani in the microtiter test (Alteso); type: cell-based; conditions: day 7, relative to active compound-free control (100%)
# [8] = 31 ppm, microtiter test, day 7, relative to active compound-free control (100%)
# [9] = 31 ppm, microtiter test, comparative experiments
compound,measurement,setting,value
"S-{2-[3-(2-chlorophenyl)-2-(2,4-difluorophenyl)oxiranylmethyl]-2H-[1,2,4]triazole-3-yl}rel-(2S,3R)thio carbonate [Example 15]",Growth in % at 31 ppm for Pyrior,[1],64%
"Fc1ccc([C@]2(Cn3cnc(S)n3)O[C@H]2c2ccccc2Cl)c(F)c1 (relative stereo) [Example 1, 1-[rel-(2R,3S)-3-(2-chlorophenyl)-2-(2,4-difluorophenyl)oxiranylmethyl]-1H-[1,2,4]triazole-3-thiol]",Infection in % at 600 ppm for Puccrt P1,"[2]; 600 ppm, protective spray 1 day before inoculation, wheat, untreated 90%",0%
same,Infection in % at 600 ppm for Botrci P1,[3],7%
"Fc1ccc([C@@]2(Cn3nc[nH]c3=S)O[C@@H]2c2ccccc2C(F)(F)F)cc1F (relative stereo) [Example 5, 1-[rel-(2S,3R)-2-(3,4-difluorophenyl)-3-(2-(trifluoromethyl)phenyl)oxiran-2-ylmethyl]-1H-1,2,4-triazole-5(4H)-thione]",Infection in % at 300 ppm for Puccrt P1,"[2]; 300 ppm, protective spray 1 day before inoculation, wheat, untreated 90%",10%
"Fc1ccc([C@@]2(Cn3ncnc3[S-])O[C@@H]2c2ccccc2Cl)c(F)c1.[Na+] (relative stereo) [Example 16, sodium rel-(2S,3R)-2-[3-(2-chlorophenyl)-2-(2,4-difluorophenyl)oxiranylmethyl]-2H-[1,2,4]triazole-3-thiolate]",Growth in % at 31 ppm for Leptno,[4]; [8],4%
"COC(=O)Sc1ncnn1CC1(c2ccc(F)cc2F)OC1c1ccccc1Cl (centres unmarked) [WO9742178, p. 55 (4th compound)]",Growth in % at 31 ppm for Pyrior,[1]; [9],94%
"Fc1ccc([C@@]2(Cn3nc[nH]c3=S)O[C@@H]2c2ccccc2F)c(F)c1 (relative stereo) [Example 4, 1-[rel-(2S,3R)-2-(2,4-difluorophenyl)-3-(2-fluorophenyl)oxiran-2-ylmethyl]-1H-1,2,4-triazole-5(4H)-thione]",Growth in % at 31 ppm for Pyrior,[1]; [9],7%
same,Growth in % at 31 ppm for Pyrior,[1]; [8],7%
"CSc1ncnn1C[C@]1(c2ccc(F)cc2F)O[C@@H]1c1ccccc1F (relative stereo) [Example 8, 1-[rel-(2S,3R)-2-(2,4-difluorophenyl)-3-(2-fluorophenyl)oxiran-2-ylmethyl]-5-(methylthio)-1H-1,2,4-triazole]",Infection in % at 600 ppm for Phakpa K1,[5],1%
"Fc1ccc([C@@]2(Cn3nc[nH]c3=S)O[C@@H]2c2ccccc2Cl)cc1F (relative stereo) [Example 3, 1-[rel-(2S,3R)-3-(2-chlorophenyl)-2-(3,4-difluorophenyl)oxiran-2-ylmethyl]-1H-1,2,4-triazole-5(4-H)-thione]",Infection in % at 600 ppm for Puccrt P1,[2]; in vivo,0%
same,Growth in % at 31 ppm for Leptno,[4],60%
"CSc1ncnn1C[C@]1(c2ccc(F)c(F)c2)O[C@@H]1c1ccccc1C(F)(F)F (relative stereo) [Example 9, 1-[rel-(2S,3R)-2-(3,4-difluorophenyl)-3-(2-(trifluoromethyl)phenyl)oxiran-2-ylmethyl]-5-(methylthio)-1H-1,2,4-triazole]",Infection in % at 600 ppm for Phakpa K1,[5],0%
"CC(=O)Sc1ncnn1C[C@]1(c2ccc(F)cc2F)O[C@@H]1c1ccccc1Cl (relative stereo) [Example 14, S-{2-[3-(2-chlorophenyl)-2-(2,4-difluorophenyl)oxiranylmethyl]-2H-[1,2,4]triazole-3-yl} rel-(2S,3R)thio acetate]",Infection in % at 600 ppm for Puccrt P1,[2]; in vivo,0%
same,Infection in % at 600 ppm for Botrci P1,[3],3%
"CCOP(=S)(OCC)Sc1ncnn1C[C@]1(c2ccc(F)cc2F)O[C@@H]1c1ccccc1Cl (relative stereo) [Example 13, S-1-[rel-(2S,3R)-3-(2-chlorophenyl)-2-(2,4-difluorophenyl)oxiran-2-ylmethyl]-1H-1,2,4-triazol-5-yl O,O-diethyl phosphorodithioate]",Growth in % at 31 ppm for Septtr,[6],4%
"Fc1ccc([C@@]2(Cn3ncnc3S)O[C@@H]2c2ccccc2F)cc1 [WO9638440, p. 9 (2nd compound)]",Growth in % at 31 ppm for Pyrior,[1]; [9],30%
"N#CSc1ncnn1C[C@]1(c2ccc(F)cc2F)O[C@@H]1c1ccccc1Cl (relative stereo) [Example 12, 1-[rel-(2S,3R)-3-(2-chlorophenyl)-2-(2,4-difluorophenyl)oxiran-2-ylmethyl]-5-thiocyanato-1H-1,2,4-triazole]",Growth in % at 31 ppm for Septtr,[6]; [8],1%
same,Growth in % at 31 ppm for Alteso,[7],43%
"Fc1ccc([C@@]2(Cn3nc[nH]c3=S)O[C@@H]2c2ccccc2Cl)cc1Br [WO9638440, p. 7 (2nd compound)]",Growth in % at 31 ppm for Leptno,[4]; [9],100%
"CSc1ncnn1C[C@]1(c2ccc(F)cc2F)O[C@@H]1c1ccccc1Cl (relative stereo) [Example 10, 1-[rel-(2S,3R)-3-(2-chlorophenyl)-2-(2,4-difluorophenyl)oxiran-2-ylmethyl]-5-(methylthio)-1H-1,2,4-triazole]",Infection in % at 600 ppm for Phakpa K1,[5],0%
